In publication PMC9980655 (Journal of medicinal chemistry, 2022):

Legend:
[1] = In vitro metabolic stability in CES1−/− mouse liver homogenate; format: in vitro ADME; details: C57BL/6, mouse
[2] = In vitro metabolic stability in CES1−/− mouse brain homogenate; format: in vitro ADME; details: for remaining at 1 h, 10 μM: C57BL/6, mouse; for Stability in mouse (% remaining at 1 h) Brain: 10 μM, 37 °C, mean ± std error, n = 3
[3] = In vitro metabolic stability in CES1−/− mouse plasma; format: in vitro ADME; details: C57BL/6, mouse
[4] = rats, dose dependent; cited from earlier work
[5] = Time-dependent oral PK in CES1−/− mice; format: in vivo, mouse; details: PO 10 mg/kg DPTIP equivalent
[6] = Single time-point; format: in vivo, mouse; details: CES1−/− mice, PO 10 mg/kg DPTIP equivalent, 2 h post dose
[7] = format: in vivo, mouse; details: high resolution mass spectrometry, after oral dosing
[8] = molecular target: T1, nSMase2 (Mus musculus, UniProt Q9JJY3); experiment: nSMase2 activity in striata of IL-1β-injected mice; format: in vivo; details: PO 3 and 10 mg/kg DPTIP equivalent, dose dependent, 4 h post IL-1β
T1 sequence (Q9JJY3 1-655): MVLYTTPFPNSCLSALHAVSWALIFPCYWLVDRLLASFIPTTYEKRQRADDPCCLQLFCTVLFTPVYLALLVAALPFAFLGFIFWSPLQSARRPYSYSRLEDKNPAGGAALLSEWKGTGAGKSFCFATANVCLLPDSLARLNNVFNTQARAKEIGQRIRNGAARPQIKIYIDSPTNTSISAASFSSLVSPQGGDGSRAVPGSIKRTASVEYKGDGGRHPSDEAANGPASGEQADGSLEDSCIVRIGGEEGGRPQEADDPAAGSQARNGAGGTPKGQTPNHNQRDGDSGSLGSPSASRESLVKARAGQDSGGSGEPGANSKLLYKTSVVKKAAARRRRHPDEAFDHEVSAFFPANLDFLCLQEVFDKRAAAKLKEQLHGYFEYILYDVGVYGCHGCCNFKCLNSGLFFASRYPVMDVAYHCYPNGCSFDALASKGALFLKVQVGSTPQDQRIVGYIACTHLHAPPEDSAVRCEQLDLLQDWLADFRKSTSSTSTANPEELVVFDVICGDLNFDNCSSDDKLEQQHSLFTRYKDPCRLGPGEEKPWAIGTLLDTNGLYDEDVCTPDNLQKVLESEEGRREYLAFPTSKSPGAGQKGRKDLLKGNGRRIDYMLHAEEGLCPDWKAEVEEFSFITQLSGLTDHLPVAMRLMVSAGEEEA

COc1cc(-c2nc(-c3ccccc3)c(-c3cccs3)[nH]2)cc(OC)c1OC(=O)N1C2CCC1CC(N1CCCCC1)C2 (centres unmarked) [Compound P13, 2,6-Dimethoxy-4-(5-phenyl-4-(thiophen-2-yl)-1H-imidazol-2-yl)phenyl 3-(piperidin-1-yl)-8-azabicyclo[3.2.1]octane-8-carboxylate]
remaining at 1 h, 10 μM ([1]; tissue homogenate): > 75%

COc1cc(-c2nc(-c3ccccc3)c(-c3cccs3)[nH]2)cc(OC)c1OCOP(=O)(O)OCOC(=O)OC(C)C [Compound P16, ((((2,6-Dimethoxy-4-(4-phenyl-5-(thiophen-2-yl)-1H-imidazol-2-yl)phenoxy)methoxy)(hydroxy)phosphoryl)oxy)methyl isopropyl carbonate]
remaining at 1 h, 10 μM ([2]; CES1−/− mouse brain homogenate): > 75%
remaining at 1 h, 10 μM ([1]; CES1−/− mouse liver homogenate): < 25%

CCCCCC(=O)Oc1c(OC)cc(-c2nc(-c3ccccc3)c(-c3cccs3)[nH]2)cc1OC [Compound P2, 2,6-Dimethoxy-4-(4-phenyl-5-(thiophen-2-yl)-1H-imidazol-2-yl)phenyl hexanoate]
remaining at 1 h, 10 μM ([2]; CES1−/− mouse brain homogenate): ≥ 50%
remaining at 1 h, 10 μM ([3]; CES1−/− mouse plasma): < 30%
remaining at 1 h, 10 μM ([1]; CES1−/− mouse liver homogenate): < 25%

CC(C)c1cccc(C(C)C)c1OCOP(=O)(O)O [fospropofol]
Improvement of oral bioavailability [4]: 20–70%

COc1cc(-c2nc(-c3ccccc3)c(-c3cccs3)[nH]2)cc(OC)c1OC(=O)N1CCC(N2CCCCC2)CC1 [Compound P1, 2,6-Dimethoxy-4-(4-phenyl-5-(thiophen-2-yl)-1H-imidazol-2-yl)phenyl [1,4’-bipiperidine]-1’-carboxylate]
remaining at 1 h, 10 μM ([2]; brain homogenate): ≥ 50%
remaining at 1 h, 10 μM ([3]; plasma): > 75%
AUC0-t of intact prodrug in brain [5]: 494.6 pmol·h/g
remaining at 1 h, 10 μM ([1]; tissue homogenate): > 75%

COc1cc(-c2nc(-c3ccccc3)c(-c3cccs3)[nH]2)cc(OC)c1OC(=O)N(C)C [Compound P5, 2,6-Dimethoxy-4-(4-phenyl-5-(thiophen-2-yl)-1H-imidazol-2-yl)phenyl dimethylcarbamate]
remaining at 1 h, 10 μM ([2]; brain homogenate): > 75%
remaining at 1 h, 10 μM ([3]; plasma): > 75%
remaining at 1 h, 10 μM ([1]; tissue homogenate): > 75%

COc1cc(-c2nc(-c3ccccc3)c(-c3cccs3)[nH]2)cc(OC)c1OC(=O)OC(OC(=O)C(C)(C)C)c1ccccc1 (centres unmarked) [Compound P6, (((2,6-Dimethoxy-4-(4-phenyl-5-(thiophen-2-yl)-1H-imidazol-2-yl)phenoxy)carbonyl)oxy)(phenyl)methyl pivalate]
remaining at 1 h, 10 μM ([2]; CES1−/− mouse brain homogenate): ≥ 50%
remaining at 1 h, 10 μM ([3]; CES1−/− mouse plasma): > 75%
remaining at 1 h, 10 μM ([1]; CES1−/− mouse liver homogenate): > 75%

COc1cc(-c2nc(-c3ccccc3)c(-c3cccs3)[nH]2)cc(OC)c1OC(=O)N1C2CCCC1CC2 [Compound P12, 2,6-Dimethoxy-4-(5-phenyl-4-(thiophen-2-yl)-1H-imidazol-2-yl)phenyl 8-azabicyclo[3.2.1]octane-8-carboxylate]
remaining at 1 h, 10 μM ([1]; tissue homogenate): > 75%

COc1cc(-c2nc(-c3ccccc3)c(-c3cccs3)[nH]2)cc(OC)c1OC(C)=O [Compound P3, 2,6-Dimethoxy-4-(4-phenyl-5-(thiophen-2-yl)-1H-imidazol-2-yl)phenyl acetate]
Stability in mouse (% remaining at 1 h) Brain ([2]; CES1−/− mouse brain homogenate): completely metabolized
remaining at 1 h, 10 μM ([3]; CES1−/− mouse plasma): < 30%
remaining at 1 h, 10 μM ([1]; CES1−/− mouse liver homogenate): < 25%

COc1cc(-c2nc(-c3ccccc3)c(-c3cccs3)[nH]2)cc(OC)c1OC(=O)C1=CN(C)C=CC1 [Compound P17, 2,6-Dimethoxy-4-(4-phenyl-5-(thiophen-2-yl)-1H-imidazol-2-yl)phenyl 1-methyl-1,4-dihydropyridine-3-carboxylate]
Brain level of intact prodrug [6]: 3.0 nM
Plasma level of intact prodrug [6]: 3.9 nM
Putative oxidized pyridinium metabolite in brain and plasma [7]: negligible quantities

CCC1CC(N2CCCCC2)CC(CC)N1C(=O)Oc1c(OC)cc(-c2nc(-c3ccccc3)c(-c3cccs3)[nH]2)cc1OC (centres unmarked) [Compound P18, 2,6-Dimethoxy-4-(5-phenyl-4-(thiophen-2-yl)-1H-imidazol-2-yl)phenyl 2’,6’-diethyl-[1,4’-bipiperidine]-1’-carboxylate]
Effect on heightened nSMase2 activity in striata caused by IL-1β [8]: normalized
remaining at 1 h, 10 μM ([2]; brain homogenate): > 75%
remaining at 1 h, 10 μM ([3]; plasma): > 75%
AUC0-t of intact prodrug in brain [5]: 179 pmol·h/g
remaining at 1 h, 10 μM ([1]; tissue homogenate): > 75%

CCC1CCCC(CC)N1C(=O)Oc1c(OC)cc(-c2nc(-c3ccccc3)c(-c3cccs3)[nH]2)cc1OC (centres unmarked) [Compound P10, 2,6-Dimethoxy-4-(5-phenyl-4-(thiophen-2-yl)-1H-imidazol-2-yl)phenyl 2,6-diethylpiperidine-1-carboxylate]
remaining at 1 h, 10 μM ([1]; CES1−/− mouse liver homogenate): > 50%

COc1cc(-c2nc(-c3ccccc3)c(-c3cccs3)[nH]2)cc(OC)c1OCOP(=O)(O)O [Compound P15, (2,6-Dimethoxy-4-(4-phenyl-5-(thiophen-2-yl)-1H-imidazol-2-yl)phenoxy) methyl dihydrogen phosphate]
Stability in mouse (% remaining at 1 h) Brain ([2]; CES1−/− mouse brain homogenate): completely metabolized
remaining at 1 h, 10 μM ([1]; CES1−/− mouse liver homogenate): < 25%

COc1cc(-c2nc(-c3ccccc3)c(-c3cccs3)[nH]2)cc(OC)c1OC(=O)C(C)(C)C [Compound P4, 2,6-Dimethoxy-4-(4-phenyl-5-(thiophen-2-yl)-1H-imidazol-2-yl)phenyl pivalate]
remaining at 1 h, 10 μM ([2]; CES1−/− mouse brain homogenate): > 75%
remaining at 1 h, 10 μM ([3]; CES1−/− mouse plasma): < 30%
remaining at 1 h, 10 μM ([1]; CES1−/− mouse liver homogenate): < 25%
